Source: patent US5756491A, “Antiviral cobalt-organic compounds” (priority 1991, dated 1998)

Legend:
HSV-1 = HSV-1 plaque reduction assay; format: cell-based; set-up: IC50: unit not given beside the values; conditions: for IC50: toxicity IC50
Procedure: (§1) Two days prior to use, HFF cells are plated into six well plates and incubated at 37° C. with 5% CO2 and 90% humidity. On the date of assay, the drug is made up at twice the desired concentration in 2×MEM and then serially diluted 1:5 in 2×MEM using six concentrations of drug. The initial starting concentration is usually 200 μg/ml down to 0.06 μg/ml. The virus to be used is diluted in MEM containing 10% FBS to a desired concentration which will give 20-30 plaques per well. The media is then aspirated from the wells and 0.2 ml of virus is added to each well in duplicate with 0.2 ml of media being added to drug toxicity wells. The plates are then incubated for one hour with shaking every fifteen minutes. After the incubation period, an equal amount of 1% agarose was added to a equal volume of each drug dilution. This will give final drug concentrations beginning with 100 μg/ml and ending with 0.03 μg/ml and a final agarose overlay concentration of 0.5%. The drug agarose mixture is applied to each well in 2 ml volume and the plates then incubated for three days, after which the cells were stained with a 1.5% solution of neutral red. At the end of 4-6 hr incubation period, the stain is aspirated, and plaques counted using a stereomicroscope at 1×magnification.
(§2) The procedure for the liquid overlay plaque assay is similar to that using the agarose overlay. The procedure for adding the virus is the same as for the regular plaque assay. The drugs are made up in a concentration to be used in MEM with 2% FBS. The drugs are not made up at 2×concentration as in previous assays but are made up at the desired concentration. For HSV-1 and HSV-2 assays, an antibody preparation obtained from Baxter Health Care Corporation is diluted 1:500 and added to the media that the drug is diluted in. For CMV and VZV, no antibody in the overlay is utilized. For the CMV assay, additional medium without new drug is added on day six and allowed to incubate for a total of 11 days. For VZV, additional media is added on day five and incubated for a total of eight days. At the end of the incubation period for all of the assays, the medium is removed, the cells washed and then stained with 0.1% crystal violet solution for ten minutes. The cells are then rinsed several times to remove any excess crystal violet and plaques enumerated using a stereomicroscope.
(§3) I. EC50 values were also determined for each of the viruses tested for known antiviral agents. The comparison compound was ACV for all viruses except for HCMV aherein DHPG was the comparison compound. In Table 26, these comparison EC50 values are indicated with an asterisk. In Table 27, the drug FIAU (2'-fluoro-5-iodo-arabinosyl-uracil) was used as a control.

HSV-2 = HSV-2 plaque reduction assay; format: cell-based; set-up: unit not given beside the values; conditions: for IC50: toxicity IC50
Procedure: as §1, §2, §3

HSV-2 (MS strain) [1] = assay: Vaginal virus replication in primary genital HSV-2 infection of guinea pigs; format: in vivo, Female Hartley strain guinea pigs; conditions: for # Infected/# Inoculated / Mean Peak Virus Titer / P-Value for Mean Peak Virus Titer / Virus Titer-Day Area Under Curve: 20 mg/ml; for infectivity rate: treatment beginning 6 h after infection
Procedure: (§4) A series of studies were carried out to compare the activity of inventive antiviral Compounds 23, 76, and 82 in a primary genital HSV-2 infection of guinea pigs. The experiments were placebo-controlled and uninfected animals were treated with three concentrations of each of the preparations to assess skin irritation and determine the maximum tolerated dose.
(§5) The MS strain of HSV-2 was utilized for the experimental animal infection. Female Hartley strain guinea pigs (Charles River Breeding Laboratories, Kingston, N.Y.) weighing 250-300 g were inoculated intravaginally with 1.4×10^5 plaque forming units of HSV-2 one hour after being swabbed for the removal of vaginal secretions.
(§6) Groups of 10 infected guinea pigs were treated topically as stated above with 20 mg/ml (the maximum tolerated dose) of each compound beginning 6 h or 24 h after inoculation with HSV-2.
To determine the effect of treatment on vaginal virus replication, swabs of vaginal secretions were obtained on days 1, 3, 5, 7, and 10 after HSV-2 inoculation, placed in a tube containing 2.0 ml of media, vortexed and frozen at -70° until titrated for HSV-2. When all samples were collected, they were thawed, diluted serially and HSV-2 titers were determined using rabbit kidney cells in a microtiter CPE assay. Mean peak virus titers and areas under the virus titer-day curves were calculated and analyzed.
(§7) The number of animals infected over the number inoculated, lesion score-day areas and virus titer-day areas under the curve, peak lesion scores and peak virus titers between untreated and placebo-treated or placebo-treatedand drug-treated animals were compared using the Mann-Whitney U rank sum test. A p-value of 0.05 or less was considered significant.

HSV-2 (MS strain) [2] = assay: External genital lesion development in primary genital HSV-2 infection of guinea pigs; format: in vivo, Female Hartley strain guinea pigs; set-up: key to Lesion Score-Day Area Under Curve: area under 0-5+ lesion score vs day curve (score-days); key to Mean Peak Lesion Score: lesion severity on 0-5+ scale; conditions: 20 mg/ml
Procedure: as §4, §5, §6
To determine the effect of therapy on the development and spread of external genital lesions, lesion severity was scored on a 0-5+ scale through the primary infection (21 days). Mean peak lesion scores and the areas under the lesion score-day curves were calculated and analyzed.
as §7

Row | SMILES | EC50 (HSV-1) | IC50 (HSV-1) | EC50 (HSV-2) | IC50 (HSV-2) | # Infected/# Inoculated (HSV-2 (MS strain) [1]; started +6h) | Mean Peak Virus Titer (HSV-2 (MS strain) [1]; started +6h) | P-Value for Mean Peak Virus Titer (HSV-2 (MS strain) [1]; started +6h) | Virus Titer-Day Area Under Curve (HSV-2 (MS strain) [1]; started +6h) | # Infected/# Inoculated (HSV-2 (MS strain) [1]; started +24h) | Mean Peak Virus Titer (HSV-2 (MS strain) [1]; started +24h) | Virus Titer-Day Area Under Curve (HSV-2 (MS strain) [1]; started +24h) | effect on virus titer AUC (HSV-2 (MS strain) [1]; started +24 h) | infectivity rate (HSV-2 (MS strain) [1]) [%] | Lesion Score-Day Area Under Curve (HSV-2 (MS strain) [2]; started +6h) | Mean Peak Lesion Score (HSV-2 (MS strain) [2]; started +6h) | P-Value for Mean Peak Lesion Score (HSV-2 (MS strain) [2]; started +6h) | Lesion Score-Day Area Under Curve (HSV-2 (MS strain) [2]; started +24h) | Mean Peak Lesion Score (HSV-2 (MS strain) [2]; started +24h)
1 | CC([O-])=CC(C)=NCCN=C(C)C=C(C)[O-].Cc1ncc[nH]1.Cc1ncc[nH]1.[Br-].[Co+3] [Compound 96] | > 4 | 10.2 | > 4 | 10.2 | – | – | – | – | – | – | – | – | – | – | – | – | – | –
2 | CC([O-])=CC(C)=NCCN=C(C)C=C(C)[O-].[Cl-].[Co+3].c1c[nH]cn1.c1c[nH]cn1 [Compound 82] | – | – | – | – | 5/10 | 1.1 | < 0.001 | 3.3 | 10/10 | 4.6 | 26.4 | failed to alter the virus titer AUC | 50 | 3.5 | 0.7 | < 0.001 | 53.8 | 3.4
3 | CC1=CC(C)=[N+]2CC[N+]3=C(C)C=C(C)[O][Co-3]23([NH3+])([NH3+])[O]1.[Cl-] [Compound 23, reference compound] | > 4 | 7.0 | > 4 | 7.0 | 5/10 | 1.1 | < 0.001 | 1.7 | 10/10 | 4.1 | 14.5 | – | 50 | 0.0 | 0.0 | < 0.001 | 43.8 | 3.4
